A word on the Kd: it is the concentration at which binding is half-saturated. Low readings indicate tighter binding, high ones weaker binding.

Where a SMILES comes first, the peptide text is derived from it. Bridges are numbered along the chain shown (N, C = ends). [ ]: non-standard residue; d: D form. The star is where a group is joined. Adamantane1carbonyl = O=C(C12CC3CC(CC(C3)C1)C2)*; 2Nal = N[C@@H](Cc1ccc2ccccc2c1)C(=O)O; Cit = NC(=O)NCCC[C@H](N)C(=O)O

The record followed here is patent US20180216060A1, “METHODS AND MEANS FOR THE MODIFICATION OF CELL SURFACES” (ACADEMISCH ZIEKENHUIS LEIDEN (ALSO ACTING UNDER THE NAME OF …, priority 2015, published 2018).

In one experiment the target is T1, CXCR4 receptor (Homo sapiens, UniProt P61073).
T1 construct: expressed in transfected cells; host or cells: MDA-MB-231 human breast cancer cells (MDA-GFP-CXCR4+), gift of Dr. Gary Luker
T1 sequence (P61073 whole entry): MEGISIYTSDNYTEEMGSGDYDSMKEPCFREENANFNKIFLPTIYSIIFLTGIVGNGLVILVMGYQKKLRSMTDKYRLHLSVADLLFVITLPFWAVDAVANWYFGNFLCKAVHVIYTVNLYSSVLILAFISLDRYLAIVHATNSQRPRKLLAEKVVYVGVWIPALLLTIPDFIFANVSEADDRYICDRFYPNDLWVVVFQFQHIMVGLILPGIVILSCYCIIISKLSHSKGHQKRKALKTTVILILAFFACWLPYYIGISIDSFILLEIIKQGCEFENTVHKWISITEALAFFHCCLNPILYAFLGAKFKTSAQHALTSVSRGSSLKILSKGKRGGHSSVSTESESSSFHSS
Kind of experiment: Flow cytometry competition with Ac-TZ14011-MSAP to determine receptor affinity (KD). The class given is binding. The settings on record: competition with Ac-TZ14011-MSAP (250 nM), MDA-GFP-CXCR4+ cells. An excerpt: The necessity of a multivalent approach was studied by direct comparison between an entity comprising polymeric host functional groups (multivalent) and a monovalent host functional group. A genetically modified MDA-MB-231 human breast cancer cell line that has the Green Fluorescent Protein (GFP) directly coupled to the overexpressed CXCR4 receptor was used to study the interactions with CXCR4 positive cells. The CXCR4 chemokine receptor is over-expressed in the membrane of many human cancer cells, but CXCR4 also play a major role in the chemotaxis of stem cells. The cyclic peptide Ac-TZ14011 is often used to target this receptor and was also chosen here as the ligand. […] The binding strength between the receptor and the peptide was determined by competition with a previously reported modified Ac-TZ14011 derivative. […] The cells were then washed two times with 1% BSA in PBS, resuspended in 1% BSA in PBS and fluorescence of the reference compound was measured by using a BD FacsCanto™ II flow cytometer with APC-Cy7 settings. Live cells were gated on forward scatter and side scatter and 10000 viable cells were analyzed. […] The KD values were calculated by using the “Binding-Competitive, One site-Fit Ki” nonlinear regression equation of GraphPad Prism. […]
MDA-GFP-CXCR4+ cells were trypsinized (using 0.5% trypsin/EDTA, BD Biosciences) and counted. […]
(In general: Flow cytometry measures light scatter and fluorescence of single cells or particles in a stream.)

Experiment [1] can be described thus: Sensing: binding of functionalized cells to a glass slide coated with β-cyclodextrin. Conditions: 1 h ligand incubation, 15 min on slide. How it is done:
A glass slide was coated with β-cyclodextrin in a line of 400 micrometer wide. CXCR4 expressing cells (see previous examples) were incubated for 1 h with the ligand-guest compound Ac-TZ14011-Ad as discussed above and then added to the glass slide and incubated for 15 min. […] The conclusion of this experiment is that cells can be selectively found (and bound) within a solution by using the guest-host chemistry of the present invention. This enables one to purify (and at least to sense) particular types of cells within a solution and/or mixture of cells.

The compound `CC(=O)N[C@@H](CCCNC(=N)N)C(=O)N[C@@H](CCCNC(=N)N)C(=O)N[C@@H](Cc1ccc2ccccc2c1)C(=O)N[C@H]1CSSC[C@@H](C(=O)N[C@@H](CCCNC(=N)N)C(N)=O)NC(=O)[C@H](CCCNC(N)=O)NC(=O)[C@H](CCCNC(=N)N)NC(=O)[C@H](Cc2ccc(O)cc2)NC(=O)[C@@H]2CCCN2C(=O)[C@@H](CCCCNC(=O)C23CC4CC(CC(C4)C2)C3)NC(=O)[C@H](CCCNC(=N)N)NC(=O)[C@H](CCCNC(N)=O)NC(=O)[C@H](Cc2ccc(O)cc2)NC1=O` [Ac-TZ14011-Ad] (Ac-RR[2Nal]CY[Cit]R[dK](Adamantane1carbonyl)PYR[Cit]CR-NH2; disulfide 4-13) registered a Kd on CXCR4 receptor of 56 nM. Besides, the “attachment of functionalized cells to the cyclodextrin coated area” value in experiment [1] is “preferentially attach”.
